Measurements from patent US20020026053A1, “Novel 3-(substituted) -2- indolinones compounds and use thereof as inhibitors of protein kinase activity” (priority 1997, published 2002).

target: T1, EGFR (Homo sapiens, UniProt P00533); assay: Biochemical EGFR Assay; set-up: concentration or dose not given beside the values
T1 construct: endogenous in cells; host or cells: A431 cells (lysate, captured with SUMO1 anti-EGFR antibody)
How it was run: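 EGFR from A431 lysate was captured on anti-EGFR-coated wells and preincubated 30 min with compound (diluted 1:10 in TBS) at room temperature. After ATP/MnCl2 phosphorylation for 5 min, the reaction was stopped with EDTA. Phosphotyrosine was detected by ELISA (anti-phosphotyrosine, peroxidase conjugate, ABTS) at 410 nm.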

T1 sequence (P00533 25-1210): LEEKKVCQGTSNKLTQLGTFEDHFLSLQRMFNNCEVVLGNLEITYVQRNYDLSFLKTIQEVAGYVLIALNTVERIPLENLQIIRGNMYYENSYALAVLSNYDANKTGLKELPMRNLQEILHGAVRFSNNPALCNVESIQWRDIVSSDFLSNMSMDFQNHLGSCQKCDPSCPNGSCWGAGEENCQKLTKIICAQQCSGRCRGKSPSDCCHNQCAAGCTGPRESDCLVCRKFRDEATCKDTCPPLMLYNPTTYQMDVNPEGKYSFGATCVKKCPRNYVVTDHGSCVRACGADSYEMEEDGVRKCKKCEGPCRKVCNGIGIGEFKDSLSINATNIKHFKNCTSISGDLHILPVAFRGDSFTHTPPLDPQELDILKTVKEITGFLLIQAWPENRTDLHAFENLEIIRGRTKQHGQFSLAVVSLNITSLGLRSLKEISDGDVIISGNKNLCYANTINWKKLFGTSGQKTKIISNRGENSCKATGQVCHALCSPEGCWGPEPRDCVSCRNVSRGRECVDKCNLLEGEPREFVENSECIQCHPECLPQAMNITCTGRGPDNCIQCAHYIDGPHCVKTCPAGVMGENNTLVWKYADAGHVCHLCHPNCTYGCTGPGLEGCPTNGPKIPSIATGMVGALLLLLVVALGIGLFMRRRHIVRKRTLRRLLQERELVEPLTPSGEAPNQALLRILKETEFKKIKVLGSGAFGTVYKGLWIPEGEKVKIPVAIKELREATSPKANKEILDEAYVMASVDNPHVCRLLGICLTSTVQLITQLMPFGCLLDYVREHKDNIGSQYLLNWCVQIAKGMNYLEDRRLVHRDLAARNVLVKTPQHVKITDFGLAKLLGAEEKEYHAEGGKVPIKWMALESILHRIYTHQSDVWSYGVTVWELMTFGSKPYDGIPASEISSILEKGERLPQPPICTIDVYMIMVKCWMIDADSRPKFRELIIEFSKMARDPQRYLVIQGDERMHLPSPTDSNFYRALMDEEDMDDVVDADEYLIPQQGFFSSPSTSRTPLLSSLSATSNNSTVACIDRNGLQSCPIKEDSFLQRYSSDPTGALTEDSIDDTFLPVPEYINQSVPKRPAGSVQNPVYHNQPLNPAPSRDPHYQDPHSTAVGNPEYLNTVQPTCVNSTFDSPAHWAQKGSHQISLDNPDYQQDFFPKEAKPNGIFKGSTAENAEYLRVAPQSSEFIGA

SMILES | Biochem EGFR % Inhibition (P.167) [%]
CCOc1cccc(C=C2C(=O)Nc3c(Br)cc(Br)c(C)c32)c1O [10734/H02] | −11.9
Cc1c(Br)cc(Br)c2c1C(=Cc1cc(Cl)cc(Cl)c1O)C(=O)N2 [10734/H03] | 6.6
Cc1c(Br)cc(Br)c2c1C(=Cc1cc(Cl)ccc1O)C(=O)N2 [10734/H04] | 5.9
